Reference: ChEMBL document CHEMBL3885881, “DrugMatrix”

Species: Rattus norvegicus
Experiment: DrugMatrix - Regimen: Daily Repeat
Format: toxicity, organism-based, Sprague-Dawley
Set-up: regimen Daily Repeat, gender Male, age 6-8 weeks
Settings: in vivo, po, route oral GAVAGE, vehicle .5 % CMC; for ABSOLUTE BASOPHIL / ABSOLUTE EOSINOPHIL / ABSOLUTE LYMPHOCYTE / ABSOLUTE MONOCYTE / ABSOLUTE SEGMENTED NEUTROPHIL / BASOPHIL / EOSINOPHIL / ERYTHROCYTE COUNT / HEMATOCRIT / HEMOGLOBIN / LEUKOCYTE COUNT / LYMPHOCYTE / MEAN CORPUSCULAR HEMOGLOBIN CONCENTRATION / MEAN CORPUSCULAR VOLUME / MONOCYTE / NEUTROPHIL / NUCLEATED RED BLOOD CELLS / PLATELET COUNT: tissue Blood; for ALANINE AMINOTRANSFERASE / ALBUMIN / ALKALINE PHOSPHATASE / BLOOD UREA NITROGEN / CARBON DIOXIDE / CHLORIDE / CHOLESTEROL / CREATINE PHOSPHOKINASE / CREATININE / GLUCOSE / LACTATE DEHYDROGENASE / LIPASE / PHOSPHORUS / POTASSIUM / SODIUM / TOTAL BILIRUBIN / TOTAL PROTEIN: tissue Plasma
[1] = 0 mg/kg, 72 h, dose level Control, time 3 day
[2] = 0 mg/kg, 120 h, dose level Control, time 5 day
[3] = 60 mg/kg, 72 h, dose level High, time 3 day

CO[C@H]1C[C@@H]2CC[C@@H](C)[C@@](O)(O2)C(=O)C(=O)N2CCCC[C@H]2C(=O)O[C@H]([C@H](C)C[C@@H]2CC[C@@H](O)[C@H](OC)C2)CC(=O)[C@H](C)/C=C(\C)[C@@H](O)[C@@H](OC)C(=O)[C@H](C)C[C@H](C)/C=C/C=C/C=C/1C [SIROLIMUS]
ABSOLUTE BASOPHIL [1]: 0 CELLS/uL
ABSOLUTE EOSINOPHIL [1]: 47.67 CELLS/uL
ABSOLUTE LYMPHOCYTE [1]: 15937.67 CELLS/uL
ABSOLUTE MONOCYTE [1]: 138.33 CELLS/uL
ABSOLUTE SEGMENTED NEUTROPHIL [1]: 1443 CELLS/uL
BASOPHIL [1]: 0%
EOSINOPHIL [1]: 0.33%
ERYTHROCYTE COUNT [1]: 5.45 x10E6/uL
HEMATOCRIT [1]: 34.43%
HEMOGLOBIN [1]: 13.38 G/DL
LEUKOCYTE COUNT [1]: 17.57 x10E3/uL
LYMPHOCYTE [1]: 90.33%
MEAN CORPUSCULAR HEMOGLOBIN CONCENTRATION [1]: 38.88 G/DL
MEAN CORPUSCULAR VOLUME [1]: 63.27 fL
MONOCYTE [1]: 0.83%
NEUTROPHIL [1]: 8.5%
NUCLEATED RED BLOOD CELLS [1]: 0 /100WBC
PLATELET COUNT [1]: 1298 x10E3/uL
ALANINE AMINOTRANSFERASE [1]: 47.67 u/L
ALBUMIN [1]: 4.18 G/DL
ALKALINE PHOSPHATASE [1]: 398.5 u/L
BLOOD UREA NITROGEN [1]: 16 mg/dL
CARBON DIOXIDE [1]: 29.17 mmol/L
CHLORIDE [1]: 98.17 MEQ/L
CHOLESTEROL [1]: 68.83 mg/dL
CREATINE PHOSPHOKINASE [1]: 467.33 u/L
CREATININE [1]: 0.14 mg/dL
GLUCOSE [1]: 151.67 mg/dL
LACTATE DEHYDROGENASE [1]: 597.5 u/L
LIPASE [1]: 9.33 u/L
PHOSPHORUS [1]: 11.97 mg/dL
POTASSIUM [1]: 6.43 MEQ/L
SODIUM [1]: 140.68 MEQ/L
TOTAL BILIRUBIN [1]: 0.18 mg/dL
TOTAL PROTEIN [1]: 5.82 G/DL
ABSOLUTE BASOPHIL [2]: 0 CELLS/uL
ABSOLUTE EOSINOPHIL [2]: 31 CELLS/uL
ABSOLUTE LYMPHOCYTE [2]: 14327.83 CELLS/uL
ABSOLUTE MONOCYTE [2]: 102.83 CELLS/uL
ABSOLUTE SEGMENTED NEUTROPHIL [2]: 1321.67 CELLS/uL
BASOPHIL [2]: 0%
EOSINOPHIL [2]: 0.17%
ERYTHROCYTE COUNT [2]: 5.79 x10E6/uL
HEMATOCRIT [2]: 36.1%
LEUKOCYTE COUNT [2]: 15.78 x10E3/uL
LYMPHOCYTE [2]: 90.5%
MEAN CORPUSCULAR HEMOGLOBIN CONCENTRATION [2]: 39.22 G/DL
MEAN CORPUSCULAR VOLUME [2]: 62.4 fL
MONOCYTE [2]: 0.67%
NEUTROPHIL [2]: 8.67%
NUCLEATED RED BLOOD CELLS [2]: 0.17 /100WBC
PLATELET COUNT [2]: 1211.67 x10E3/uL
ALANINE AMINOTRANSFERASE [2]: 49 u/L
ALBUMIN [2]: 4.27 G/DL
ALKALINE PHOSPHATASE [2]: 356.67 u/L
BLOOD UREA NITROGEN [2]: 20.5 mg/dL
CARBON DIOXIDE [2]: 29.17 mmol/L
CHLORIDE [2]: 98 MEQ/L
CHOLESTEROL [2]: 69.83 mg/dL
CREATINE PHOSPHOKINASE [2]: 312 u/L
CREATININE [2]: 0.21 mg/dL
GLUCOSE [2]: 149.83 mg/dL
LACTATE DEHYDROGENASE [2]: 322 u/L
LIPASE [2]: 10 u/L
PHOSPHORUS [2]: 12 mg/dL
POTASSIUM [2]: 6.75 MEQ/L
SODIUM [2]: 142.8 MEQ/L
TOTAL BILIRUBIN [2]: 0.17 mg/dL
TOTAL PROTEIN [2]: 6.1 G/DL
ABSOLUTE BASOPHIL [3]: 0 CELLS/uL
ABSOLUTE EOSINOPHIL [3]: 0 CELLS/uL
ABSOLUTE LYMPHOCYTE [3]: 11212.33 CELLS/uL
ABSOLUTE SEGMENTED NEUTROPHIL [3]: 775.67 CELLS/uL
BASOPHIL [3]: 0%
EOSINOPHIL [3]: 0%
ERYTHROCYTE COUNT [3]: 6.32 x10E6/uL
HEMATOCRIT [3]: 39.93%
HEMOGLOBIN [3]: 15.57 G/DL
LEUKOCYTE COUNT [3]: 12.23 x10E3/uL
LYMPHOCYTE [3]: 91.67%
MEAN CORPUSCULAR HEMOGLOBIN CONCENTRATION [3]: 39 G/DL
MEAN CORPUSCULAR VOLUME [3]: 63.4 fL
MONOCYTE [3]: 2%
NEUTROPHIL [3]: 6.33%
NUCLEATED RED BLOOD CELLS [3]: 0 /100WBC
PLATELET COUNT [3]: 1112 x10E3/uL
ALANINE AMINOTRANSFERASE [3]: 51.33 u/L
ALBUMIN [3]: 4.23 G/DL
ALKALINE PHOSPHATASE [3]: 271 u/L
BLOOD UREA NITROGEN [3]: 18.33 mg/dL
CARBON DIOXIDE [3]: 29.67 mmol/L
CHLORIDE [3]: 97.67 MEQ/L
CHOLESTEROL [3]: 84.33 mg/dL
CREATINE PHOSPHOKINASE [3]: 323.67 u/L
CREATININE [3]: 0.19 mg/dL
GLUCOSE [3]: 192 mg/dL
LACTATE DEHYDROGENASE [3]: 111.33 u/L
LIPASE [3]: 10.33 u/L
PHOSPHORUS [3]: 11.37 mg/dL
POTASSIUM [3]: 5.46 MEQ/L
SODIUM [3]: 143.47 MEQ/L
TOTAL BILIRUBIN [3]: 0.17 mg/dL
TOTAL PROTEIN [3]: 5.9 G/DL
ABSOLUTE BASOPHIL (60 mg/kg, 120 h, dose level High, time 5 day): 0 CELLS/uL
